Assays:
AMARE [1] = assay: Pre-emergence herbicidal action against AMARE; type: in vivo, Amaranthus retroflexus
In short: (§1)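 Visual rating at 3 weeks vs untreated pots; 0–100% scale, 100% = plants died. Treatment: aqueous WP/EC spray onto covering soil, 600–800 l/ha, 0.2% wetter, seeds in sandy loam.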

AMARE [2] = assay: Post-emergence herbicidal action against AMARE; type: in vivo, Amaranthus retroflexus; details: 20 g/ha, visual assessment about 3 weeks after treatment, 100% = plants have died, 0% = like control plants
In short: (§2)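 Weeds in sandy loam soil received a post-emergence spray at the one-leaf stage. Compounds were applied as WP or EC in water, 600 to 800 l/ha, with 0.2% wetting agent. Activity in % was judged visually after roughly 3 weeks against untreated plants.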

ALOMY [3] = assay: Post-emergence herbicidal action against ALOMY; type: in vivo, Alopecurus myosuroides; details: dosage 20 g/ha, visual assessment about 3 weeks after treatment vs untreated controls
In short: as §2

VIOTR [4] = assay: Post-emergence herbicidal action against VIOTR; type: in vivo, Viola tricolor
In short: as §2

MATIN [5] = assay: Pre-emergence herbicidal action against MATIN; type: in vivo, Matricaria inodora
In short: as §1

SETVI [6] = assay: Post-emergence herbicidal action against SETVI; type: in vivo, Setaria viridis
In short: as §2

ABUTH [7] = assay: Pre-emergence herbicidal action against ABUTH; type: in vivo, Abutilon theophrasti
In short: as §1

ALOMY [8] = assay: Pre-emergence herbicidal action against ALOMY; type: in vivo, Alopecurus myosuroides
In short: as §1

AVEFA = assay: Pre-emergence herbicidal action against AVEFA; type: in vivo, Avena fatua
In short: as §1

MATIN [9] = assay: Post-emergence herbicidal action against MATIN; type: in vivo, Matricaria inodora
In short: as §2

SETVI [10] = assay: Pre-emergence herbicidal action against SETVI; type: in vivo, Setaria viridis
In short: as §1

DIGSA [11] = assay: Post-emergence herbicidal action against DIGSA; type: in vivo, Digitaria sanguinalis; details: Digitaria sanguinalis, 504 h
In short: as §2

DIGSA [12] = assay: Pre-emergence herbicidal action against DIGSA; type: in vivo, Digitaria sanguinalis; details: Digitaria sanguinalis, 504 h
In short: as §1

VERPE = assay: Pre-emergence herbicidal action against VERPE; type: in vivo, Veronica persica; details: dosage 80 g/ha
In short: as §1

PHBPU [13] = assay: Post-emergence herbicidal action against PHBPU; type: in vivo, Pharbitis purpurea
In short: as §2

POLCO = assay: Pre-emergence herbicidal action against POLCO; type: in vivo, Polygonum convolvulus; details: dosage 80 g/ha
In short: as §1

VIOTR [14] = assay: Pre-emergence herbicidal action against VIOTR; type: in vivo, Viola tricolor
In short: as §1

ABUTH [15] = assay: Post-emergence herbicidal action against ABUTH; type: in vivo, Abutilon theophrasti; details: visual assessment about 3 weeks after treatment vs untreated controls
In short: as §2

ECHCG [16] = assay: Post-emergence herbicidal action against ECHCG; type: in vivo, Echinochloa crus-galli
In short: as §2

PHBPU [17] = assay: Pre-emergence herbicidal action against PHBPU; type: in vivo, Pharbitis purpurea; details: dosage 80 g/ha
In short: as §1

ECHCG [18] = assay: Pre-emergence herbicidal action against ECHCG; type: in vivo, Echinochloa crus-galli
In short: as §1

LOLRI = assay: Pre-emergence herbicidal action against LOLRI; type: in vivo, Lolium rigidum; details: 80 g/ha
In short: as §1

[19] = Tripleurospermum inodorum, 504 h, dosage 20 g/ha
[20] = Setaria viridis, 504 h, dosage 20 g/ha
[21] = 80 g/ha, scored visually after 3 weeks vs untreated controls (100% = plants have died, 0% = like control plants)
[22] = 20 g/ha, scored visually after 3 weeks, 100% = plants have died, 0% = like control plants

## Cn1nnnc1NC(=O)c1ccc(C(F)(F)F)c(C(=O)NC2CC2)c1C1CC1 [Example 1-288]
AMARE [1]; Amaranthus retroflexus, 504 h, 20 g/ha, scored visually after 3 weeks vs untreated controls, 100% = plants have died, 0% = like control plants
  pest or weed control at 20 g/ha: 100%
AMARE [1]; Amaranthus retroflexus, 504 h, 80 g/ha, scored visually after 3 weeks vs untreated controls, 100% = plants have died, 0% = like control plants
  pest or weed control at 80 g/ha: 100%
AMARE [2]; Amaranthus retroflexus, 504 h
  pest or weed control at 20 g/ha: 100%
ALOMY [3]; Alopecurus myosuroides, 504 h
  pest or weed control at 20 g/ha: 90%
VIOTR [4]; Viola tricolor, 504 h, 5 g/ha
  pest or weed control at 5 g/ha: 90%
VIOTR [4]; Viola tricolor, 504 h, 20 g/ha
  pest or weed control at 20 g/ha: 90%
MATIN [5]; [19]
  pest or weed control at 20 g/ha: 100%
MATIN [5]; Tripleurospermum inodorum, 504 h, dosage 80 g/ha
  pest or weed control at 80 g/ha: 100%
SETVI [6]; Setaria viridis, 504 h, dosage 5 g/ha
  pest or weed control at 5 g/ha: 80%
SETVI [6]; [20]
  pest or weed control at 20 g/ha: 100%
ABUTH [7]; Abutilon theophrasti, 504 h, 80 g/ha, scored visually after 3 weeks vs untreated controls (100% = plants have died, 0% = like control plants)
  pest or weed control at 80 g/ha: 100%
ABUTH [7]; Abutilon theophrasti, 504 h, dosage 20 g/ha, scored visually after 3 weeks vs untreated controls, 100% = plants have died, 0% = like control plants, read-out: Pre-emergence action against ABUTH (herbicidal activity in percent)
  pest or weed control at 20 g/ha: 100%
ALOMY [8]; Alopecurus myosuroides, 504 h, 80 g/ha, pre-emergence, scored visually after 3 weeks vs untreated controls (100% = plants have died, 0% = like control plants)
  pest or weed control at 80 g/ha: 90%
AVEFA; Avena fatua, 504 h, 80 g/ha, pre-emergence
  pest or weed control at 80 g/ha: 90%
MATIN [9]; Tripleurospermum inodorum, 504 h, dosage 5 g/ha
  pest or weed control at 5 g/ha: 90%
MATIN [9]; [19]
  pest or weed control at 20 g/ha: 100%
SETVI [10]; [20]
  pest or weed control at 20 g/ha: 100%
SETVI [10]; Setaria viridis, 504 h, dosage 80 g/ha
  pest or weed control at 80 g/ha: 100%
DIGSA [11]; 5 g/ha
  pest or weed control at 5 g/ha: 90%
DIGSA [11]; 20 g/ha
  pest or weed control at 20 g/ha: 100%
DIGSA [12]; dosage 20 g/ha
  pest or weed control at 20 g/ha: 100%
DIGSA [12]; dosage 80 g/ha
  pest or weed control at 80 g/ha: 100%
VERPE; Veronica persica, 504 h
  pest or weed control at 80 g/ha: 100%
PHBPU [13]; Ipomoea purpurea, 504 h, dosage 20 g/ha
  pest or weed control at 20 g/ha: 80%
POLCO; Fallopia convolvulus, 504 h
  pest or weed control at 80 g/ha: 80%
VIOTR [14]; Viola tricolor, 504 h, dosage 20 g/ha
  pest or weed control at 20 g/ha: 100%
VIOTR [14]; Viola tricolor, 504 h, dosage 80 g/ha
  pest or weed control at 80 g/ha: 100%
ABUTH [15]; Abutilon theophrasti, 504 h, dosage 5 g/ha
  pest or weed control at 5 g/ha: 80%
ABUTH [15]; Abutilon theophrasti, 504 h, dosage 20 g/ha
  pest or weed control at 20 g/ha: 80%
ECHCG [16]; Echinochloa crus-galli, 504 h, dosage 5 g/ha
  pest or weed control at 5 g/ha: 80%
ECHCG [16]; Echinochloa crus-galli, 504 h, dosage 20 g/ha
  pest or weed control at 20 g/ha: 80%
PHBPU [17]; Ipomoea purpurea, 504 h
  pest or weed control at 80 g/ha: 100%
ECHCG [18]; Echinochloa crus-galli, 504 h, 20 g/ha
  pest or weed control at 20 g/ha: 80%
ECHCG [18]; Echinochloa crus-galli, 504 h, 80 g/ha
  pest or weed control at 80 g/ha: 100%
LOLRI; Lolium rigidum, 504 h
  pest or weed control at 80 g/ha: 80%

## CCc1c(C(=O)Nc2nnnn2CC)ccc(C(F)(F)F)c1C(=O)NCC(F)F [Example 2-276]
AMARE [1]; 20 g/ha, scored visually after 3 weeks vs untreated controls, 100% = plants have died, 0% = like control plants
  Pre-emergence action against AMARE in %: 100%
AMARE [1]; [21]
  Pre-emergence action against AMARE in %: 100%
AMARE [2]
  Post-emergence action at 20 g/ha against AMARE in %: 90%
ALOMY [3]
  Post-emergence action against ALOMY in %: 80%
VIOTR [4]; 20 g/ha
  Post-emergence action against VIOTR in %: 80%
MATIN [5]; dosage 20 g/ha
  Pre-emergence action against MATIN in %: 100%
MATIN [5]; dosage 80 g/ha
  Pre-emergence action against MATIN in %: 100%
SETVI [6]; dosage 20 g/ha
  Post-emergence action against SETVI in %: 80%
ABUTH [7]; [21]
  Pre-emergence action against ABUTH (herbicidal activity): 100%
ABUTH [7]; dosage 20 g/ha, scored visually after 3 weeks vs untreated controls, 100% = plants have died, 0% = like control plants
  Pre-emergence action against ABUTH (herbicidal activity in percent): 100%
ALOMY [8]; [22]
  Pre-emergence action against ALOMY: 90%
ALOMY [8]; 80 g/ha, pre-emergence, scored visually after 3 weeks vs untreated controls (100% = plants have died, 0% = like control plants)
  Pre-emergence action against ALOMY (herbicidal activity): 90%
AVEFA; [22]
  Pre-emergence action against AVEFA: 80%
AVEFA; 80 g/ha, pre-emergence
  Pre-emergence action against AVEFA in %: 90%
MATIN [9]; dosage 20 g/ha
  Post-emergence action against MATIN in %: 90%
SETVI [10]; dosage 80 g/ha
  Pre-emergence action against SETVI in %: 100%
VERPE
  Pre-emergence action against VERPE in %: 80%
PHBPU [13]; dosage 5 g/ha
  Post-emergence action against PHBPU in %: 80%
PHBPU [13]; dosage 20 g/ha
  Post-emergence action against PHBPU in %: 90%
POLCO
  Pre-emergence action against POLCO in %: 90%
VIOTR [14]; dosage 20 g/ha
  Pre-emergence action against VIOTR in %: 100%
VIOTR [14]; dosage 80 g/ha
  Pre-emergence action against VIOTR in %: 100%
ABUTH [15]; dosage 5 g/ha
  Post-emergence action against ABUTH in %: 80%
ABUTH [15]; dosage 20 g/ha
  Post-emergence action against ABUTH in %: 80%
ECHCG [16]; dosage 20 g/ha
  Post-emergence action against ECHCG in %: 90%
PHBPU [17]
  Pre-emergence action against PHBPU in %: 90%
ECHCG [18]; 80 g/ha
  Pre-emergence action against ECHCG in %: 80%
LOLRI
  Pre-emergence action against LOLRI in %: 80%

From US12655116B2, “Substituted isophthalic acid diamides” (Bayer Aktiengesellschaft, priority 2020, dated 2026)
